Results: patent US4379784A, “Pyrimidinyl ureido penicillins” (Dr. Karl Thomae Gesellschaft mit beschrankter Haftung, priority 1980, dated 1983)
≈ marks a conversion by molar mass, not a printed value.

Tests used:
[1] = system: Klebsiella pneumoniae ATCC 10 031; experiment: series dilution test in the microtiter system (MIC), Klebsiella pneumoniae ATCC 10031; assay type: cell-based; settings: 18 to 20 hours at 37° C., liquid medium, read-out: minimum inhibitory concentrations (MIC), Klebs.pneum. ATCC 10031
Description: (§1) The method of the series dilution test in the microtiter system was used. The substances were tested for bacteriostasis in a liquid medium. The bacteriostatic activity was tested at the following concentrations:
(§2) A nutrient medium having the following composition was used: 10 gm of peptone, 8 gm of meat extract oxoid, 3 gm of sodium chloride, and 2 gm of sec. sodium phosphate were made up to […] with distilled water (pH 7.2 to 7.4). The age of the primary cultures was about 20 hours.
(§3) The bacterial suspension was adjusted using the photometer (according to "Eppendorf", test tube diameter 14 mm, filter 546 nm) by reference to the turbidity of a barium sulfate comparison suspension which was produced by a barium sulfate suspension formed by the addition of 3.0 ml of 1% barium chloride solution to 97 ml of 1% sulfuric acid. After adjustment, Streptococcus aronson was diluted in the ratio 1:15 and the other test pathogens were diluted in the ratio 1:1500 with a common salt solution.
(§4) 16 mg of the test substance were weighed in 10 ml measuring flasks and solvent was added up to the mark. Further dilutions in the series were made with distilled water or the solvent in question.
(§5) The depressions in the microtiter plates were filled with 0.2 ml of nutrient medium, 0.01 ml of the corresponding diluted substance and a drop of bacterial suspension (0.01 ml) and incubated for 18 to 20 hours at 37° C. A solvent check was carried out continuously at the same time.
(§6) The reading was taken macroscopically, and the respective limiting concentration (=the lowest concentration still having bacteriostatic activity) was determined.
(§7) The following were used as test organisms:
(§8) Staphylococcus aureus SG 511, Escherichia coli ATCC 11 775, Pseudomonas aeruginosa Hamburgensis and Pseudomonas aeruginosa BC 19, Serratia Marcescens ATCC 13 880, Klebsiella pneumoniae ATCC 10 031 and BC 6, Proteus mirabilis Hamburgensis, Proteus rettgeri BC 7, Enterobacter cloacae ATCC 13 047.
(§9) Table 1 below lists the minimum inhibitory concentrations (MIC) in μgm/ml determined for typical representatives of the compounds of the present invention. These are the sodium salts of compounds of the formula I where A=p-hydroxyphenyl and R has the indicated meanings.

[2] = system: Enterobacter cloacae ATCC 13 047; experiment: series dilution test in the microtiter system (MIC), Enterobacter cloacae ATCC 13047; assay type: cell-based; settings: 18 to 20 hours at 37° C., liquid medium, read-out: minimum inhibitory concentrations (MIC), Eb.cloacae ATCC 13047
Description: as §1, §2, §3, §4, §5, §6, §7, §8, §9

[3] = system: Proteus mirabilis Hamburgensis; experiment: series dilution test in the microtiter system (MIC), Proteus mirabilis Hamburgensis; assay type: cell-based; settings: 18 to 20 hours at 37° C., liquid medium, read-out: minimum inhibitory concentrations (MIC), Prot. mirabilis Hbg
Description: as §1, §2, §3, §4, §5, §6, §7, §8, §9

[4] = system: Pseudomonas aeruginosa BC 19; experiment: in vivo experimental Pseudomonas infection in mice; parameters: species or system mice (female, NMRI strain); settings: BC19, sc, 168 h, subcutaneous, three treatments 1, 3 and 5 hours post-infectionem, 50% survival, 7 days observation, read-out: ED50, Pseud. Infection
Description: (§10) A number of the compounds of the present invention were tested in vivo against experimental infections in mice. E. coli ATCC 11775 and Pseudomonas aeruginosa BC 19 were used as the pathogenic bacteria. An intraperitoneal infection was produced with 0.2 ml of a 5% mucin suspension of the bacteria. This corresponds to about 1.4×10^6 E. coli bacteria and 1.3×10^6 Pseudomonas bacteria per mouse. Female mice of the NMRI strain were divided into groups of 10 animals; two groups were untreated, the other groups were treated subcutaneously with various doses of the penicillins of the present invention, to determine the ED50 (dose at which 50% of the animals survived). For the E. coli infection, one treatment was given*. For the Pseudomonas infection, three treatments were given (1, 3 and 5 hours post-infectionem). In both cases, the observation period was 7 days.

[5] = system: Pseudomonas aeruginosa Hamburgensis; experiment: series dilution test in the microtiter system (MIC), Ps. aeruginosa Hamburgensis; assay type: cell-based; settings: 18 to 20 hours at 37° C., liquid medium, read-out: minimum inhibitory concentrations (MIC), Pseud. aerug. Hbg.
Description: as §1, §2, §3, §4, §5, §6, §7, §8, §9

[6] = system: Klebsiella pneumoniae BC 6; experiment: series dilution test in the microtiter system (MIC), Klebsiella pneumoniae BC 6; assay type: cell-based; settings: BC6, 18 to 20 hours at 37° C., liquid medium, read-out: minimum inhibitory concentrations (MIC), Klebs. pneum. BC 6
Description: as §1, §2, §3, §4, §5, §6, §7, §8, §9

[7] = system: Staphylococcus aureus SG 511; experiment: series dilution test in the microtiter system (MIC), S. aureus SG 511; assay type: cell-based; settings: SG511, 18 to 20 hours at 37° C., liquid medium, read-out: minimum inhibitory concentrations (MIC), S.aureus SG 511
Description: as §1, §2, §3, §4, §5, §6, §7, §8, §9

Proteus rettgeri BC 7 = experiment: series dilution test in the microtiter system (MIC), Proteus rettgeri BC 7; assay type: cell-based; settings: Providencia rettgeri, BC7; 18 to 20 hours at 37° C., liquid medium; read-out: minimum inhibitory concentrations (MIC), Prot. geri BC
Description: as §1, §2, §3, §4, §5, §6, §7, §8, §9

[8] = system: Pseudomonas aeruginosa BC 19; experiment: series dilution test in the microtiter system (MIC), Ps. aeruginosa BC 19; assay type: cell-based; settings: BC19, 18 to 20 hours at 37° C., liquid medium, read-out: minimum inhibitory concentrations (MIC), Pseud. aerug. BC 19
Description: as §1, §2, §3, §4, §5, §6, §7, §8, §9

[9] = system: Serratia Marcescens ATCC 13 880; experiment: series dilution test in the microtiter system (MIC), Serratia marcescens ATCC 13880; assay type: cell-based; settings: 18 to 20 hours at 37° C., liquid medium, read-out: minimum inhibitory concentrations (MIC), Serrat. marcesc. ATCC 13880
Description: as §1, §2, §3, §4, §5, §6, §7, §8, §9

E. coli ATCC 11775 = experiment: in vivo experimental E. coli infection in mice; parameters: species or system mice (female, NMRI strain); settings: Escherichia coli, ATCC11775, sc, 168 h; subcutaneous, one treatment 1 hour post infectionem; 50% survival, 7 days observation
Description: as §10, with “post-infectionem). *1 hour post infectionem” for “post-infectionem).”

[10] = system: Escherichia coli ATCC 11 775; experiment: series dilution test in the microtiter system (MIC), E. coli ATCC 11775; assay type: cell-based; settings: 18 to 20 hours at 37° C., liquid medium, read-out: minimum inhibitory concentrations (MIC), E.Coli ATCC 11775
Description: as §1, §2, §3, §4, §5, §6, §7, §8, §9

| MIC [1] [µg/mL] | MIC [2] [µg/mL] | MIC [3] [µg/mL] | MIC [5] [µg/mL] | MIC [6] [µg/mL] | MIC [7] [µg/mL] | MIC (Proteus rettgeri BC 7) [µg/mL] | MIC [8] [µg/mL] | MIC [9] [µg/mL] | MIC [10] [µg/mL] | Compound | ED50 [4] [mg/kg] | ED50 (E. coli ATCC 11775) [mg/kg] |
| --- | --- | --- | --- | --- | --- | --- | --- | --- | --- | --- | --- | --- |
| 2 (≈ 2.65 µM) | 0.5 (≈ 0.662 µM) | 0.06 (≈ 0.0795 µM) | 1 (≈ 1.32 µM) | 2 (≈ 2.65 µM) | 0.25 (≈ 0.331 µM) | 0.5 (≈ 0.662 µM) | 1 (≈ 1.32 µM) | 0.5 (≈ 0.662 µM) | 0.25 (≈ 0.331 µM) | CC1(C)S[C@@H]2[C@H](NC(=O)C(NC(=O)Nc3cnc(Nc4ccc(S(=O)(=O)NC5=NCCCN5)cc4)nc3O)c3ccc(O)cc3)C(=O)N2[C@H]1C(=O)O (some centres unmarked) [A] | 2.1 | 0.6 |
| 2 (≈ 2.7 µM) | 0.1 (≈ 0.135 µM) | 0.06 (≈ 0.081 µM) | 2 (≈ 2.7 µM) | 4 (≈ 5.4 µM) | 0.5 (≈ 0.675 µM) | 0.5 (≈ 0.675 µM) | 1 (≈ 1.35 µM) | 0.25 (≈ 0.337 µM) | 0.25 (≈ 0.337 µM) | CC1(C)S[C@@H]2[C@H](NC(=O)C(NC(=O)Nc3cnc(Nc4ccc(S(=O)(=O)NC5=NCCN5)cc4)nc3O)c3ccc(O)cc3)C(=O)N2[C@H]1C(=O)O (some centres unmarked) [B] | 1.9 | 0.7 |
| 1 (≈ 1.32 µM) | 0.5 (≈ 0.66 µM) | 0.06 (≈ 0.0792 µM) | 1 (≈ 1.32 µM) | 1 (≈ 1.32 µM) | 0.25 (≈ 0.33 µM) | 0.25 (≈ 0.33 µM) | 2 (≈ 2.64 µM) | 0.25 (≈ 0.33 µM) | 0.12 (≈ 0.158 µM) | CC1(C)S[C@@H]2[C@H](NC(=O)C(NC(=O)Nc3cnc(Nc4ccc(S(=O)(=O)NC5=NCCS5)cc4)nc3O)c3ccc(O)cc3)C(=O)N2[C@H]1C(=O)O (some centres unmarked) [C] | 17 | ~3 |
| 2 (≈ 2.7 µM) | 1 (≈ 1.35 µM) | 0.06 (≈ 0.0809 µM) | 1 (≈ 1.35 µM) | 4 (≈ 5.39 µM) | 0.5 (≈ 0.674 µM) | 0.25 (≈ 0.337 µM) | 1 (≈ 1.35 µM) | 0.25 (≈ 0.337 µM) | 0.25 (≈ 0.337 µM) | CC1(C)S[C@@H]2[C@H](NC(=O)C(NC(=O)Nc3cnc(Nc4ccc(S(=O)(=O)NC5=NCCO5)cc4)nc3O)c3ccc(O)cc3)C(=O)N2[C@H]1C(=O)O (some centres unmarked) [D] | – | ~2 |
| 2 (≈ 2.79 µM) | 2 (≈ 2.79 µM) | 0.06 (≈ 0.0837 µM) | 2 (≈ 2.79 µM) | 4 (≈ 5.58 µM) | 0.5 (≈ 0.698 µM) | 0.5 (≈ 0.698 µM) | 1 (≈ 1.4 µM) | 0.13 (≈ 0.181 µM) | 0.25 (≈ 0.349 µM) | CC1(C)S[C@@H]2[C@H](NC(=O)C(NC(=O)Nc3cnc(Nc4ccc(S(=O)(=O)NCCO)cc4)nc3O)c3ccc(O)cc3)C(=O)N2[C@H]1C(=O)O (some centres unmarked) [F] | 10 to 20 | ~5 |
| 2 (≈ 2.74 µM) | 1 (≈ 1.37 µM) | 0.06 (≈ 0.0822 µM) | 1 (≈ 1.37 µM) | 2 (≈ 2.74 µM) | 0.5 (≈ 0.685 µM) | 0.5 (≈ 0.685 µM) | 1 (≈ 1.37 µM) | 0.25 (≈ 0.343 µM) | 0.12 (≈ 0.164 µM) | CC1(C)S[C@@H]2[C@H](NC(=O)C(NC(=O)Nc3cnc(Nc4ccc(S(=O)(=O)NCC(N)=O)cc4)nc3O)c3ccc(O)cc3)C(=O)N2[C@H]1C(=O)O (some centres unmarked) [G] | – | ~5 |
| 2 (≈ 2.6 µM) | 1 (≈ 1.3 µM) | 0.06 (≈ 0.0779 µM) | 2 (≈ 2.6 µM) | 2 (≈ 2.6 µM) | 0.5 (≈ 0.65 µM) | 0.5 (≈ 0.65 µM) | 1 (≈ 1.3 µM) | 0.25 (≈ 0.325 µM) | 0.25 (≈ 0.325 µM) | CC1(C)S[C@@H]2[C@H](NC(=O)C(NC(=O)Nc3cnc(Nc4ccc(S(=O)(=O)N5CCN(C=O)CC5)cc4)nc3O)c3ccc(O)cc3)C(=O)N2[C@H]1C(=O)O (some centres unmarked) [H] | – | – |
| 32 (≈ 69.3 µM) | 32 (≈ 69.3 µM) | 2 (≈ 4.33 µM) | 8 (≈ 17.3 µM) | 32 (≈ 69.3 µM) | 0.5 (≈ 1.08 µM) | 8 (≈ 17.3 µM) | 8 (≈ 17.3 µM) | 4 (≈ 8.67 µM) | 8 (≈ 17.3 µM) | CC1(C)S[C@@H]2[C@H](NC(=O)[C@H](NC(=O)N3CCNC3=O)c3ccccc3)C(=O)N2[C@H]1C(=O)O [J, azlocillin, reference compound] | > 100 | > 100 |
